Measurements from ChEMBL document CHEMBL1135522, “Novel retinoid X receptor antagonists: specific inhibition of retinoid synergism in RXR-RAR heterodimer actions” (2002).

What was measured:
[1] = test system: HL-60; assay: Percentage inhibition of human promyelocytic leukemia cells HL-60 differentiation induced by combined RAR and RXR agonists; Range is from 34-73; format: functional
[2] = test system: HL-60; assay: Percentage of human promyelocytic leukemia cells HL-60 differentiation induced by Am80 RAR agonist; format: functional

| Compound | Inhibition [1] [%] | Inhibition [2] [%] |
| --- | --- | --- |
| CC1(C)CCC(C)(C)c2cc(N(CC3CC3)c3ncc(C(=O)O)cn3)ccc21 | 73 |  |
| CCCCCOc1cc2c(cc1N(C)c1ncc(C(=O)O)cn1)C(C)(C)CCC2(C)C |  | 44 |
